The target of assay [1] is T1, translationally controlled tumor protein (TCTP) (Homo sapiens, UniProt P13693).
T1 construct: gene TPT1
T1 sequence (P13693 1-172): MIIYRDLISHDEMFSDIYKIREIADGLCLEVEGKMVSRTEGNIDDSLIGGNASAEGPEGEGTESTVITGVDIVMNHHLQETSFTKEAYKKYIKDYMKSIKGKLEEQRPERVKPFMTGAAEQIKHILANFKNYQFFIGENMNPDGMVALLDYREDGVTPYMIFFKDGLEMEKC
The assay can be described thus: microscale thermophoresis with NHS-labeled purified human TCTP (reference inhibitor, positive control). Format: binding. A general note: Microscale thermophoresis detects binding through changes in fluorescence in a small temperature gradient.

For assay [2], the target named is T1, translationally controlled tumor protein (TCTP). Nature of the assay: microscale thermophoresis with NHS-labeled purified human TCTP; supported by co-immunoprecipitation of p53 from treated MOLT-4 cells. In kind it is binding.

The values that follow come from publication PMC8280061, “A novel ligand of the translationally controlled tumor protein (TCTP) identified by virtual drug screening for cancer differentiation therapy” (Investigational New Drugs, 2021).

A word on the Kd: it is the constant that tells how readily two partners part at equilibrium. The low end stands for tighter binding, the high end for weaker binding.

`C[C@H]1[C@H](OC(=O)CCC(=O)O)O[C@@H]2O[C@@]3(C)CC[C@H]4[C@H](C)CC[C@@H]1[C@@]24OO3` [Artesunate]: the Kd in assay [1] came out at 23.2 ± 9.45 µM.
For the compound `COc1cccc2c(C)nc(Nc3nc(-c4ccc(F)cc4)cc(=O)[nH]3)nc12` [ZINC10157406, 6-(4-fluorophenyl)-2-[(8-methoxy-4-methyl-2-quinazolinyl)amino]-4(3H)-pyrimidinone], in assay [2], the dissociation constant Kd stood at 0.87 ± 0.38 µM.
